The subject of the assay is scopolamine induced memory impairment in male Swiss albino mice. Kind of assay: Passive avoidance test, scopolamine induced memory impairment. To be noted: 5 mg/kg p.o.; scopolamine 1 mg/kg i.p.; mean ± SEM of six mice.

Excerpt: The rectangular larger compartment has 50 cm×50 cm grid floor and wooden walls of 35 cm height. The box was illuminated with a 100-W bulb placed 150 cm above the center. It has a roof, which can be opened or closed. One of the walls has a 6 cm×6 cm opening which to a dark smaller compartment having dimensions of 15 cm×15 cm. This compartment is provided with an electrifiable grid, which is connected to a constant current stimulator, and a ceiling that can be opened or closed. The connection between the two compartments can be closed with a sliding door made of transparent Plexiglas. […] The experiment was divided into three parts: An exploration test, Learning (Electric shock), and Retention testing.
The exploration test is done in three trials. During this, mice are placed in the center of the larger compartment facing away from the entrance to the dark compartment. The door between the two compartments is kept open. The mice are allowed to explore the apparatus (both larger and smaller compartments) for 3 minutes. In each trial, two things will be examined: Time taken by the mice to enter the dark compartment at each trial; and the total time spent by the animal in the dark compartment, using a stop-watch.
After the last exploration trial, the mice are placed in the larger compartment as done in the trial sessions. […]

The compound `COc1cc2c(cc1OC)C(=O)C(CC1CCN(Cc3ccccc3)CC1)C2` (stereo not shown) [Donepezil] came in with a No. of crossings of 1.17 ± 0.17.
